Reference: patent US11471459B2, “Compounds with enhanced anti-tumor effects” (FONDAZIONE PER L'ISTITUTO ONCOLOGICO DI RICERCA (IOR), priority 2018, dated 2022)

Key:
Experiment in all cases: Proliferation MTT assay, 72 h
Assay type in all cases: cell-based
[1] = system: OCI-LY-1; settings: Homo sapiens, OCI-Ly1, OCI-LY-1 (GCB-DLBCL), 72 h exposure
Procedure: (§1) Thirty-nine cell lines derived from activated B cell-like (ABC) (n=3) and germinal center B Cell (GCB) (n=12) diffuse large B cell lymphoma (DLBCL), mantle cell lymphoma (MCL) (n=9), chronic lymphocytic leukemia (CLL) (n=2), Hodgkin lymphoma (HL) (n=4), cutaneous T cell lymphoma (CTCL) (n=3), peripheral T cell lymphoma (PTCL) (n=1), anaplastic large T cell lymphoma (ALCL) (n=4), acute T cell leukemia (ATCL) (n=1) were cultured according to the recommended conditions. All media were supplemented with fetal bovine serum (10%), Penicillin-Streptomycin-Neomycin (˜5,000 units penicillin, 5 mg streptomycin and 10 mg neomycin/mL, Sigma) and L-glutamine (1%).
(§2) EG-011 was dissolved in dimethyl sulphoxide (DMSO) to obtain a stock concentration of 10 mM for in vitro experiments. EG-011 was dissolved in 25% hydroxypropyl beta cyclodextrin (HP-β-CD) in water and adjusted at pH 6.0 using NaOH (0.1 N) and HCl (0.1 N) for in vivo experiments. Application volume was 4.5 mL/kg (100 mg in 4.5 mL), and mice received 200 microliters (corresponding to 200 mg/kg) though intra peritoneal i.p. injection, once per day and five days per week.
(§3) Cells were seeded in 96-well plates (non-tissue culture treated) at a density of 10,000 cells for all cell lines. Each compound was dissolved in dimethyl sulphoxide (DMSO). For treatment of cells, compounds were serially diluted in the appropriate tissue culture medium, at a range of 20 mcM-78 nM following a 1:2 dilution factor and added to cells (in three replicates). Cells were incubated for 72 hours at 37° C., 5% CO2. DMSO alone was added to negative control (untreated) cells. Wells containing medium only were included on each plate and served as blanks for absorbance readings. MTT (Sigma-Aldrich Chemie GmbH, Buchs, Switzerland) was prepared as a 5 mg/ml stock in PBS and filter-sterilized. MTT solution (22 μL) was added to each well and tissue culture plates were incubated at 37° C. for 4 hours. Cells were then lysed with 25% SDS lysis buffer and absorbance was read at 570 nm using an AD340 plate reader (Beckman Coulter International SA, Switzerland). Absorbance values were expressed in percentage of proliferating cells in comparison with control cells (control corresponds to 100%).

[2] = system: SP49; settings: SP49 (MCL), 72 h exposure
Procedure: as §1, §2, §3

[3] = system: MEC1; settings: Homo sapiens, MEC1 (CLL), 72 h exposure
Procedure: as §1, §2, §3

[4] = system: FEPD; settings: FEPD (T Cell-PTCL), 72 h exposure
Procedure: as §1, §2, §3

[5] = system: KI-JK; settings: KI-JK (T Cell - ALCL), 72 h exposure
Procedure: as §1, §2, §3

[6] = system: RCK8; settings: Homo sapiens, RCK8 (GCB-DLBCL), 72 h exposure
Procedure: as §1, §2, §3

[7] = system: L-82; settings: L-82 (T Cell - ALCL), 72 h exposure
Procedure: as §1, §2, §3

[8] = system: GRANTA519; settings: Homo sapiens, Granta-519, GRANTA519 (MCL), 72 h exposure
Procedure: as §1, §2, §3

[9] = system: OCI-LY-7; settings: Homo sapiens, OCI-Ly7, OCI-LY-7 (GCB-DLBCL), 72 h exposure
Procedure: as §1, §2, §3

[10] = system: OCI-LY-10; settings: Homo sapiens, OCI-Ly10, OCI-LY-10 (ABC-DLBCL), 72 h exposure
Procedure: as §1, §2, §3

[11] = system: FARAGE; settings: FARAGE (GCB-DLBCL), 72 h exposure
Procedure: as §1, §2, §3

[12] = system: L-428; settings: Homo sapiens, L-428 (HL), 72 h exposure
Procedure: as §1, §2, §3

[13] = system: TOLEDO; settings: Homo sapiens, TOLEDO (GCB-DLBCL), 72 h exposure
Procedure: as §1, §2, §3

[14] = system: HH; settings: Homo sapiens, HH (T Cell - CTCL), 72 h exposure
Procedure: as §1, §2, §3

[15] = system: OCI-LY-19; settings: Homo sapiens, OCI-LY19, OCI-LY-19 (GCB-DLBCL), 72 h exposure
Procedure: as §1, §2, §3

[16] = system: MAVER1; settings: Homo sapiens, MAVER1 (MCL), 72 h exposure
Procedure: as §1, §2, §3

[17] = system: HUT-78; settings: Homo sapiens, HuT78, HUT-78 (T Cell - CTCL), 72 h exposure
Procedure: as §1, §2, §3

[18] = system: L-1236; settings: L-1236 (HL), 72 h exposure
Procedure: as §1, §2, §3

[19] = system: KARPAS-299; settings: Homo sapiens, KARPAS-299 (T Cell - ALCL), 72 h exposure
Procedure: as §1, §2, §3

[20] = system: SU-DHL-2; settings: Homo sapiens, SU-DHL-2 (ABC-DLBCL), 72 h exposure
Procedure: as §1, §2, §3

[21] = system: SP53; settings: SP53 (MCL), 72 h exposure
Procedure: as §1, §2, §3

[22] = system: AM-HLH; settings: AM-HLH (HL), 72 h exposure
Procedure: as §1, §2, §3

[23] = system: JURKAT; settings: Homo sapiens, JURKAT (T Cell Leukemia), 72 h exposure
Procedure: as §1, §2, §3

[24] = system: SU-DHL-16; settings: Homo sapiens, SU-DHL-16 (GCB-DLBCL), 72 h exposure
Procedure: as §1, §2, §3

[25] = system: Karpas-422; settings: Homo sapiens, Karpas-422 (GCB-DLBCL), 72 h exposure
Procedure: as §1, §2, §3

[26] = system: SU-DHL-8; settings: Homo sapiens, SU-DHL-8 (GCB-DLBCL), 72 h exposure
Procedure: as §1, §2, §3

SMILES: C=CC(=O)N1CCCC(n2c(=O)c3ncccc3n(Cc3ccc(Oc4ccccc4)cc3)c2=O)C1 (centres unmarked) [EG-011, 1-[(4-phenoxyphenyl)methyl]-3-(1-prop-2-enoyl-3-piperidyl)pyrido[3,2-d]pyrimidine-2,4-dione]
- IC50 [1]: 250 nM
- IC50 [2]: 8 µM
- IC50 [3]: 8 µM
- IC50 [4]: 3000 nM
- IC50 [5]: 20 µM
- IC50 [6]: 10 µM
- IC50 [7]: 2000 nM
- IC50 [8]: 250 nM
- IC50 [9]: 5 µM
- IC50 [10]: 5 µM
- IC50 [11]: 2000 nM
- IC50 [12]: 20 µM
- IC50 [13]: 600 nM
- IC50 [14]: 15 µM
- IC50 [15]: 150 nM
- IC50 [16]: 20 µM
- IC50 [17]: 1500 nM
- IC50 [18]: 9 µM
- IC50 [19]: 20 µM
- IC50 [20]: 20 µM
- IC50 [21]: 1000 nM
- IC50 [22]: 18 µM
- IC50 [23]: 15 µM
- IC50 [24]: 1500 nM
- IC50 [25]: 1500 nM
- IC50 [26]: 300 nM
